Results taken from US12023311B2, “Delayed release pharmaceutical formulations comprising valproic acid, and uses thereof” (Cereno Scientific AB, priority 2016, dated 2024).
Read-outs that look alike come from different tables or passages of the source.

Tests used:
[1] = test system: PAI-1; settings: in vivo model in mouse (Larsson, Alwis et al. 2016); cited from earlier work
[2] = test system: PAI-1; settings: cultured endothelial cells; no decrease of PAI-1 mRNA levels after VPA treatment; slight but significant; cited from earlier work
[3] = test system: PAI-1; test: Intermediate endpoint study in patients with TIA/minor stroke: plasma PAI-1 levels; type: in vivo, human; settings: 20 patients with TIA/minor stroke; 400 mg valproic acid enteric-coated tablet with delayed absorption, once daily at 11 pm for 2 weeks
Description: (§1) An intermediate endpoint proof-of-concept study is performed in patients with TIA/minor stroke investigated before and after treatment with Valproic acid. Valproic acid is administrated as an enteric-coated tablet with delayed absorption.
(§2) The study comprises 20 patients with TIA/minor stroke. Patients are investigated before and after oral treatment with 400 mg valproic acid once time daily at 11 pm for 2 weeks. Plasma PAI-1 levels and plasma concentrations of valproic acid is followed daily during the study period at the following time-points: 3 am, 6 am, 10 am, 16 pm, 22 pm PAI-1 levels are measured by commercially available ELISA-kits (Coaliza PA-1, Chromogenix AB) and the plasma concentration of valproic acid an metabolites thereof is analyzed according to clinical routine at the Sahlgrenska University laboratory, Gothenburg, Sweden.

[4] = test system: PAI-1; test: Proof-of-concept study in patients with a history of myocardial infarction: plasma PAI-1 before and after valproic acid; type: in vivo, human; settings: midmorning, p=0.01; for reduction in circulating plasma PAI-1 levels: 16 male patients aged 50-80 with history of myocardial infarction, valproic acid 500 mg (Ergenyl Retard, Sanofi) twice daily 28 days on top of ordinary prescription
Description: (§3) The effects of VPA on PAI-1 were analysed in two different proof-of-concept studies in healthy subjects as well as in patients with manifest atherosclerotic disease. […] PAI-1 plasma levels were measured in the morning at the first day of the study as well as at the end of the treatment period with VPA (see example 2 for details on the PAI-1 analysis).
In the second study, 16 non-smoking white male patients, aged 50-80 years with a history of a myocardial infarction were included. On top of their ordinary prescription (beta-blocker, ACE-inhibitor, statin, aspirin) they were treated with valproic acid 500 mg (Ergenyl Retard, Sanofi), twice daily during 28 days.

[5] = test system: PAI-1; test: Proof-of-concept study in healthy subjects: plasma PAI-1 before and after valproic acid; type: in vivo, human; settings: p<0.05
Description: as §3
In the first study, 10 healthy non-smoking white male subjects (with mean BMI of approximately 26), aged 50-70 years were included and treated with valproic acid 500 mg (Ergenyl Retard. Sanofi) twice daily during 14 days.

[6] = test system: PAI-1; settings: in vivo model in pig (Svennerholm et al. 2014); cited from earlier work
[7] = Intermediate endpoint study in patients with TIA/minor stroke: plasma concentration of valproic acid; type: in vivo, human; settings: 400 mg enteric-coated tablet with delayed absorption, oral, once daily at 11 pm, clock time
Description: as §1, §2

time of peak plasma concentration of valproic acid [7]: peak between 3 am and 6 am
SMILES: CCCC(CCC)C(=O)O [valproic acid, 2-propylpentanoic acid]
effects on plasma PAI-1 [1]: did not detect any effects
increase in PAI-1 production [2]: 30%
plasma PAI-1 levels lowered after the treatment [3]: approximately 30%
reduction in circulating plasma PAI-1 levels [4]: 45%
reduction in circulating plasma PAI-1 levels ([4]; listed as VPA): about 45%
circulating plasma PAI-1 level after treatment ([4]; patients with history of myocardial infarction, 500 mg (Ergenyl Retard) twice daily 28 days, from 19.6 ng/ml before treatment): 11 ng/mL
reduction in circulating plasma PAI-1 levels ([5]; 10 healthy non-smoking male subjects aged 50-70, valproic acid 500 mg (Ergenyl Retard, Sanofi) twice daily 14 days, mid-morning vs before treatment): more than 50%
circulating plasma PAI-1 level after treatment ([5]; healthy male subjects, 500 mg (Ergenyl Retard) twice daily 14 days, mid-morning, from 22.2 ng/ml before treatment): 10.8 ng/mL
effects on plasma PAI-1 [6]: did not detect any effects
